The target in one assay is T1, chTNALP (Gallus gallus, UniProt Q92058).
T1 sequence (Q92058 17-498): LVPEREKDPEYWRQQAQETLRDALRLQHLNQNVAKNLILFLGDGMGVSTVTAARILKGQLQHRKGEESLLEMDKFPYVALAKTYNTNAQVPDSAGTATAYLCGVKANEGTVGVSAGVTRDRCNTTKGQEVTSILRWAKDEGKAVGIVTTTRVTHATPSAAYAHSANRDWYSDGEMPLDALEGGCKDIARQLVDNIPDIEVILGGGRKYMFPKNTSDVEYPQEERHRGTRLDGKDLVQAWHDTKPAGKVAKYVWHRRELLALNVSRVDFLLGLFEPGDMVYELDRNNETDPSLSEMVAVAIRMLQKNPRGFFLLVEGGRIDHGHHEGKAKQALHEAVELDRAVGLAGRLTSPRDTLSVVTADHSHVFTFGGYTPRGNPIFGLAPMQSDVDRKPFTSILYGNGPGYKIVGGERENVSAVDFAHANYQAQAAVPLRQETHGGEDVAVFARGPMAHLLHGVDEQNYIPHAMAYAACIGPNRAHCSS
As to the kind of experiment: Ki of uncompetitive inhibitors (pNPP substrate). It is filed as biochemical, chicken. As to conditions: read-out: Ki for various inhibitors. An excerpt:
(See Kozlenkov A, et al., 2002). […] TNAP and PLAP structures were superimposed and the amino acid differences within a 12 Å radius around the catalytic Zn1 ion were pinpointed. The difference between human TNAP and chicken TNAP were also mapped because it is reported that chicken TNAP is much less susceptible to levamisol than is human TNAP. In total, six positions with amino acid differences were found, which could be clustered into two groups. […] In addition, […] and […] were also investigated.

The target of another assay is hTNALP A371 (Homo sapiens, UniProt P05186, Y388A). Description: biochemical.
A further assay deals with hTNALP A168 (Homo sapiens, UniProt P05186, D185A). Description: biochemical.
For another assay, the target named is hTNALP A109 (Homo sapiens, UniProt P05186, G126A). As to the kind of experiment: biochemical.
Another assay has as its target hTNALP (D433, E434) (Homo sapiens, UniProt P05186, H451E/R450D). Description: biochemical.

By Ki is commonly meant a measure of affinity in units of concentration, obtained from inhibition or displacement.

hTNALP A168, sequence (P05186 18-501 D185A): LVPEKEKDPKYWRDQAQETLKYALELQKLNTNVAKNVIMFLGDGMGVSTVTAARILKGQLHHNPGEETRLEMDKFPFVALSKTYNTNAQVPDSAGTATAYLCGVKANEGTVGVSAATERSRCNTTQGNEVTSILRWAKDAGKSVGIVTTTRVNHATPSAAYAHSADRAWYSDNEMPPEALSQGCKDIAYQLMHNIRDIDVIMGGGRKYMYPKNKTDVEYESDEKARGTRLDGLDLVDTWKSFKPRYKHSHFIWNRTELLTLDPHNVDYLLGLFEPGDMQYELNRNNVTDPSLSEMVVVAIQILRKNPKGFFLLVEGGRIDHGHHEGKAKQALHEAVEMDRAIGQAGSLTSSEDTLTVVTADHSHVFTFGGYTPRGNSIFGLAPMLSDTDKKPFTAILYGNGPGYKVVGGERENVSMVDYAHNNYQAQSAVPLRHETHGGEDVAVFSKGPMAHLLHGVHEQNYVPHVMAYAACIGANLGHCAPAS
hTNALP A109, sequence (P05186 18-501 G126A): as the sequence (P05186 18-501 D185A) above, with G109A, A168D counted along it
hTNALP A371, sequence (P05186 18-501 Y388A): as the sequence (P05186 18-501 D185A) above, with A168D, Y371A counted along it
hTNALP (D433, E434), sequence (P05186 18-501 R450D/H451E): as the sequence (P05186 18-501 D185A) above, with A168D, R433D, H434E counted along it

Turning to `N[C@@H](Cc1ccccc1)C(=O)O` [L-Phe, L-phenylalanine], the inhibition constant (Ki) at chTNALP was 11 ± 0.9 mM; on hTNALP A371 it was 65 ± 24 mM; at hTNALP A168, 30 ± 4 mM; on hTNALP A109 it was 20 ± 4 mM.
Take `N=C(N)NCCCC[C@H](N)C(=O)O` [L-hArg, L-homoarginine]: the Ki on chTNALP was 1.9 ± 0.2 mM; on hTNALP A371, 31 ± 3 mM; at hTNALP (D433, E434), 13 ± 1.6 mM; on hTNALP A168, 1.5 ± 0.3 mM; at hTNALP A109, 1.3 ± 0.2 mM.

These data come from US20090142347A1, “Tissue-Nonspecific Alkaline Phosphatase (TNAP): a Therapeutic Target for Arterial Calcification” (THE BURNHAM INSTITUTE FOR MEDICAL RESEARCH, priority 2004, published 2009).
